pIC50: −log10 of the molar value.
What was measured:
human IGF1R (hIGF1R) = biological target: T1, human IGF1R (hIGF1R) (Homo sapiens, UniProt P08069); experiment: TR-FRET kinase assay of purified hIGF1R; format: biochemical; settings: activated hIGF1R 0.5 nM, 10 μM ATP, values given as pIC50 category, read-out: IGF-1R pIC50 (converted)
T1 construct: containing amino acid residues 957-1367 of human IGF1R; made in house; host or cells: Sf9 cells (baculovirus)

human IR (hIR) = biological target: T2, human IR (hIR) (Homo sapiens, UniProt P06213); experiment: TR-FRET kinase assay of purified hIR; format: biochemical; settings: activated hIR 0.5 nM, 10 μM ATP, values given as pIC50 category
T2 construct: containing amino acid residues 979-1382 of human IR; made in house; host or cells: Sf9 cells (baculovirus), same process as hIGF1R
T2 sequence (P06213 979-1382): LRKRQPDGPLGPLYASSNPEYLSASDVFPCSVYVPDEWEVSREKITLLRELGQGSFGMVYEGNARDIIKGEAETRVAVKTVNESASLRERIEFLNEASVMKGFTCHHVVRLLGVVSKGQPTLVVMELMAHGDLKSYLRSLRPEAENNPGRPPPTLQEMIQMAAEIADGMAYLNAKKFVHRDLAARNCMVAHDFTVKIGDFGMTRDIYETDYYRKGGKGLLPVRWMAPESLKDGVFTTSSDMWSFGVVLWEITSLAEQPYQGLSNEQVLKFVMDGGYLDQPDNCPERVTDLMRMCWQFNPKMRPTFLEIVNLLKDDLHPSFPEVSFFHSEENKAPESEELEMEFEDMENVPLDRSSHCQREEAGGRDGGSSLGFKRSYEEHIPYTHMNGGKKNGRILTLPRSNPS

[1] = biological target: T3, NIH-3T3 cells overexpressing human IGF-1R (Homo sapiens, UniProt P08069); experiment: IGF-1R cellular autophosphorylation (DELFIA); format: cell-based
T3 construct: expressed in transfected cells; host or cells: NIH-3T3 (mouse fibroblasts)
T3 sequence (P08069 31-1367): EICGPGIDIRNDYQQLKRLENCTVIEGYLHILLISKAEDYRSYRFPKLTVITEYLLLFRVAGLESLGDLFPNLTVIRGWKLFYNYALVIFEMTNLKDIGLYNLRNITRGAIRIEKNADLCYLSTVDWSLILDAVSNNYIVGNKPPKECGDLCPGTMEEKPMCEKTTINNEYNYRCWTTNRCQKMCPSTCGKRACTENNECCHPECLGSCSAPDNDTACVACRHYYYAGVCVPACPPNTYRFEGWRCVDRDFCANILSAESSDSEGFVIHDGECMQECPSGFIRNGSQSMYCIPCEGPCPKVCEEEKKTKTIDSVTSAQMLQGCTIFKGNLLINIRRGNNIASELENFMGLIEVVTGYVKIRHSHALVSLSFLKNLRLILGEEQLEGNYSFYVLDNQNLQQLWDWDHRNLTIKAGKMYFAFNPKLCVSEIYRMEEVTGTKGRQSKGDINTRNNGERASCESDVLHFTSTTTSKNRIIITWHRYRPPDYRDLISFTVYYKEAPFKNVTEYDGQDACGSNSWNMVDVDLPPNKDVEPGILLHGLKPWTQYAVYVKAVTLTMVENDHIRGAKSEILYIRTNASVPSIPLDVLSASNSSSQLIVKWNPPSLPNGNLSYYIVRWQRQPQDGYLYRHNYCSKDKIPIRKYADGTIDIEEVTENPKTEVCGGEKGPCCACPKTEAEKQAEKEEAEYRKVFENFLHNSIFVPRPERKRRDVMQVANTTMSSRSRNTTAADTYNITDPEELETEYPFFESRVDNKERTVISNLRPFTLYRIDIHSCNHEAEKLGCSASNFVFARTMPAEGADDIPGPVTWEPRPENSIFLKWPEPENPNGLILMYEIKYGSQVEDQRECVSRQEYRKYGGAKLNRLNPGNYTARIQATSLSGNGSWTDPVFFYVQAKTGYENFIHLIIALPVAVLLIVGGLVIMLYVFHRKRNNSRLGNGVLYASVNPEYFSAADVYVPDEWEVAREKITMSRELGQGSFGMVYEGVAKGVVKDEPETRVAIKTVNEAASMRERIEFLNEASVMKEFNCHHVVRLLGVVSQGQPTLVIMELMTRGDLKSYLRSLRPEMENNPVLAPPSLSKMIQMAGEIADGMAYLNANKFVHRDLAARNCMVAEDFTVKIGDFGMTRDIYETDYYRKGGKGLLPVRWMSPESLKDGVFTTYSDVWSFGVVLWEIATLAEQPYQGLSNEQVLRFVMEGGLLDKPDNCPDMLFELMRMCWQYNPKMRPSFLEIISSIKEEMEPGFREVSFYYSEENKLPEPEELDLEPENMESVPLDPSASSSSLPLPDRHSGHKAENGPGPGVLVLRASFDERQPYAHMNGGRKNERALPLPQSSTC
Method in brief: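 Receptor autophosphorylation measured by DELFIA, capturing IGF-1R or IRβ and detecting with europium anti-pTyr, reported as percent of IGF-1- or insulin-stimulated signal. Compounds (30 uM to 1.5 nM) added 2 h before ligand, then 15 min stimulation (IGF-1 30 ng/ml or insulin 3 ug/ml).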

T1 sequence (P08069 957-1367): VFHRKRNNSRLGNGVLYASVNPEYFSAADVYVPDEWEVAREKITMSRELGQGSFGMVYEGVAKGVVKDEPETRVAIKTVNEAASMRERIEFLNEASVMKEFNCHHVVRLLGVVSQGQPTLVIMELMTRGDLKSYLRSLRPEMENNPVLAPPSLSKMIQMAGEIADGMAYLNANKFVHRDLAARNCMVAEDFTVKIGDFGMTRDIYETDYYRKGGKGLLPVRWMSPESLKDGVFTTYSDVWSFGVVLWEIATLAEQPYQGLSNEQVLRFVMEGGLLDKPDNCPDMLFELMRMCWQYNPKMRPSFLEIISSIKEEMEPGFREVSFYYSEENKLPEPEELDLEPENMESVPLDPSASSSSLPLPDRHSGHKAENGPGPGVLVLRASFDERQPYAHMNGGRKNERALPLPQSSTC

SMILES	IC50 (human IGF1R (hIGF1R)) [nM]	pIC50 (human IR (hIR))	pIC50 [1]
CNC(=O)c1c(F)cccc1Nc1nc(Nc2cc3c(cc2OC)CCN3C(=O)COC)nc2[nH]ccc12 [Example 150, 2-fluoro-N-methyl-6-{[2-({5-(methyloxy)-1-[(methyloxy)acetyl]-2,3-dihydro-1H-indol-6-yl}amino)-1H-pyrrolo[2,3-d]pyrimidin-4-yl]amino}benzamide]	5.01 to 200	6.80 to 8.30	< 6.30
COc1cc(N2CCCN(S(C)(=O)=O)CC2)ccc1Nc1nc(Nc2cccc(F)c2C(N)=O)c2cc[nH]c2n1 [Example 207, 2-fluoro-6-{[2-({2-(methyloxy)-4-[4-(methylsulfonyl)hexahydro-1H-1,4-diazepin-1-yl]phenyl}amino)-1H-pyrrolo[2,3-d]pyrimidin-4-yl]amino}benzamide]	5.01 to 200	6.80 to 8.30	< 6.30
CCCN1CCC=C(c2ccc(Nc3nc(Nc4ccc(F)cc4C(N)=O)c4cc[nH]c4n3)c(OC)c2)C1 [Example 54, 5-fluoro-2-[(2-{[2-(methyloxy)-4-(1-propyl-1,2,5,6-tetrahydro-3-pyridinyl)phenyl]amino}-1H-pyrrolo[2,3-d]pyrimidin-4-yl)amino]benzamide]	0.251 to 1	9.00 to 9.60	6.30 to 7.00
CCN(C)CC(=O)N1CCCc2cc(OC)c(Nc3nc(Nc4cccc(F)c4C(=O)NC)c4cc[nH]c4n3)cc21 [Example 132, 2-[(2{-[1-(N-ethyl-N-methylglycyl)-6-(methyloxy)-1,2,3,4-tetrahydro-7-quinolinyl]amino}-1H-pyrrolo[2,3-d]pyrimidin-4-yl)amino]-6-fluoro-N-methylbenzamide]	5.01 to 200	8.40 to 8.90	> 7.00
COc1cc2c(cc1Nc1nc(Nc3cccc(F)c3C(N)=O)c3cc[nH]c3n1)N(C(=O)Cn1ccnc1)CC2 [Example 145, 2-fluoro-6-[(2-{[1-(1H-imidazol-1-ylacetyl)-5-(methyloxy)-2,3-dihydro-1H-indol-6-yl]amino}-1H-pyrrolo[2,3-d]pyrimidin-4-yl)amino]benzamide]	5.01 to 200	6.80 to 8.30	< 6.30
CCNC(=O)c1c(F)cc(F)cc1Nc1nc(Nc2cc3c(cc2OC)CCN3C(=O)CN(C)C)nc2[nH]ccc12 [Example 151, 2-[(2-{[1-(N,N-dimethylglycyl)-5-(methyloxy)-2,3-dihydro-1H-indol-6-yl]amino}-1H-pyrrolo[2,3-d]pyrimidin-4-yl)amino]-N-ethyl-4,6-difluorobenzamide]	0.251 to 1	9.00 to 9.60	6.30 to 7.00
COc1cc(OCCCN2CCN(C)CC2)ccc1Nc1nc(Nc2cccc(F)c2C(N)=O)c2cc[nH]c2n1 [Example 205, 2-fluoro-6-({2-[(2-(methyloxy)-4-{[3-(4-methyl-1-piperazinyl)propyl]oxy}phenyl)amino]-1H-pyrrolo[2,3-d]pyrimidin-4-yl}amino)benzamide]	5.01 to 200	8.40 to 8.90	6.30 to 7.00
COc1cc2c(cc1Nc1nc(Nc3cccc(F)c3C(N)=O)c3cc[nH]c3n1)N(C(=O)CN(C)OC)CC2 [Example 144, 2-fluoro-6-[(2-{[1-[N-methyl-N-(methyloxy)glycyl]-5-(methyloxy)-2,3-dihydro-1H-indol-6-yl]amino}-1H-pyrrolo[2,3-d]pyrimidin-4-yl)amino]benzamide]	5.01 to 200	6.80 to 8.30	< 6.30

Other lines, results leading:

IC50 (human IGF1R (hIGF1R)) [nM]	pIC50 (human IR (hIR))	pIC50 [1]	SMILES
0.251 to 1	9.00 to 9.60	> 7.00	COc1cc2c(cc1Nc1nc(Nc3cc(F)cc(F)c3C(N)=O)c3cc[nH]c3n1)N(C(=O)CN1CCCC1)CCC2 [Example 219, 2,4-difluoro-6-[(2-{[6-(methyloxy)-1-(1-pyrrolidinylacetyl)-1,2,3,4-tetrahydro-7-quinolinyl]amino}-1H-pyrrolo[2,3-d]pyrimidin-4-yl)amino]benzamide]
5.01 to 200	6.80 to 8.30	< 6.30	COc1cc2c(cc1Nc1nc(Nc3cccc(F)c3C(N)=O)c3cc[nH]c3n1)CN(C(=O)CCN(C)C)CC2 [Example 230, 2-[(2-{[2-(N,N-dimethyl-β-alanyl)-6-(methyloxy)-1,2,3,4-tetrahydro-7-isoquinolinyl]amino}-1H-pyrrolo[2,3-d]pyrimidin-4-yl)amino]-6-fluorobenzamide]
0.251 to 1	9.00 to 9.60	> 7.00	CNC(=O)c1c(F)cc(F)cc1Nc1nc(Nc2cc3c(cc2OC)CCCN3C(=O)CN2CCCC2)nc2[nH]ccc12 [Example 221, 2,4-difluoro-N-methyl-6-[(2-{[6-(methyloxy)-1-(1-pyrrolidinylacetyl)-1,2,3,4-tetrahydro-7-quinolinyl]amino}-1H-pyrrolo[2,3-d]pyrimidin-4-yl)amino]benzamide]
5.01 to 200	6.80 to 8.30	6.30 to 7.00	COc1cc2c(cc1Nc1nc(Nc3cccc(F)c3C(N)=O)c3cc(C)[nH]c3n1)N(C(=O)CN(C)C)CC2 [Example 262, 2-[(2-{[1-(N,N-dimethylglycyl)-5-(methyloxy)-2,3-dihydro-1H-indol-6-yl]amino}-6-methyl-1H-pyrrolo[2,3-d]pyrimidin-4-yl)amino]-6-fluorobenzamide]
5.01 to 200	6.80 to 8.30	< 6.30	COc1cc2c(cc1Nc1nc(Nc3cccc(F)c3C(N)=O)c3cc[nH]c3n1)NCCC2 [Example 211, 2-fluoro-6-[(2-{[6-(methyloxy)-1,2,3,4-tetrahydro-7-quinolinyl]amino}-1H-pyrrolo[2,3-d]pyrimidin-4-yl)amino]benzamide]
0.251 to 1	9.00 to 9.60	6.30 to 7.00	CN(C)CC(=O)Nc1ccc(OC(F)(F)F)c(Nc2nc(Nc3ccccc3C(N)=O)c3cc[nH]c3n2)c1 [Example 16, 2-{[2-({5-[(N,N-dimethylglycyl)amino]-2-[(trifluoromethyl)oxy]phenyl}amino)-1H-pyrrolo[2,3-d]pyrimidin-4-yl]amino}benzamide]
0.251 to 1	9.00 to 9.60	> 7.00	COc1cc2c(cc1Nc1nc(Nc3cc(F)cc(F)c3C(N)=O)c3cc[nH]c3n1)N(C(=O)CN(C)C)CC2 [Example 189, 2-[(2-{[1-(N,N-dimethylglycyl)-5-(methyloxy)-2,3-dihydro-1H-indol-6-yl]amino}-1H-pyrrolo[2,3-d]pyrimidin-4-yl)amino]-4,6-difluorobenzamide]
5.01 to 200	8.40 to 8.90	6.30 to 7.00	COc1ccc(C(N)=O)c(Nc2nc(Nc3ccc(N4CCOC[C@@H]4C)cc3OC)nc3[nH]ccc23)c1 [Example 39, 2-[(2-{[4-[(3S)-3-methyl-4-morpholinyl]-2-(methyloxy)phenyl]amino}-1H-pyrrolo[2,3-d]pyrimidin-4-yl)amino]-4-(methyloxy)benzamide]

— patent publication US7981903B2, “2-[2-{phenylamino}-1H-pyrrolo[2,3-D]pyrimidin-4-yl)amino] benzamide derivatives as IGF-1R inhibitors for the treatment of cancer” (GlaxoSmithKline LLC, priority 2007, dated 2011)
